Source: ChEMBL document CHEMBL1146720, “Bicyclic anti-VZV nucleosides: thieno analogues bearing an alkylphenyl side chain have reduced antiviral activity” (Bioorg Med Chem Lett, 2004)

Columns and labels:
Human alphaherpesvirus 3 [1] = test: Antiviral activity against Varicella-Zoster virus (OKA); assay type: functional, organism-based
Human alphaherpesvirus 3 [2] = test: Antiviral activity against Varicella-Zoster virus (YS); assay type: functional, organism-based
Human alphaherpesvirus 3 [3] = test: Antiviral activity against Varicella-Zoster virus (thymidine kinase deficient) TK-(07/1); assay type: functional, organism-based
[4] = test system: HEL (human embryonic lung); test: Cytotoxic concentration required to inhibit Hel cell growth
[5] = test system: HEL (human embryonic lung); test: Minimal cytotoxic concentration, required to alter microscopically detectable cell morphology

| Compound | EC50 (Human alphaherpesvirus 3 [1]) | EC50 (Human alphaherpesvirus 3 [2]) | EC50 (Human alphaherpesvirus 3 [3]) | CC50 [4] | MCC [5] |
| --- | --- | --- | --- | --- | --- |
| CCCc1ccc(-c2cc3cn([C@H]4C[C@H](O)[C@@H](CO)O4)c(=O)nc3s2)cc1 | 90 nM | 60 nM | > 16000 nM | > 200000 nM | 80 µM |
| CCCCCCCCc1cc2cn([C@H]3C[C@H](O)[C@@H](CO)O3)c(=O)nc2s1 | 2 nM | 5 nM | > 5000 nM | 53000 nM | 20 µM |
| CCc1ccc(-c2cc3cn([C@H]4C[C@H](O)[C@@H](CO)O4)c(=O)nc3s2)cc1 | 200 nM | 150 nM | 20000 nM | > 200000 nM | > 200 µM |
| CCCCCc1ccc(-c2cc3cn([C@H]4C[C@H](O)[C@@H](CO)O4)c(=O)nc3s2)cc1 | 25 nM | 14 nM | 20000 nM | > 200000 nM | 50 µM |
| CCCCCCCCc1ccc(-c2cc3cn([C@H]4C[C@H](O)[C@@H](CO)O4)c(=O)nc3s2)cc1 |  | 3400 nM | > 20000 nM | > 200000 nM | ≥ 20 µM |
| CCCCCCc1ccc(-c2cc3cn([C@H]4C[C@H](O)[C@@H](CO)O4)c(=O)nc3s2)cc1 | 80 nM | 43 nM | > 50000 nM | > 200000 nM | 200 µM |
| Nc1nc2c(ncn2COCCO)c(=O)[nH]1 [ACYCLOVIR] | 1100 nM |  | 40000 nM | > 400000 nM | > 200 µM |
| CCCCCCCc1ccc(-c2cc3cn([C@H]4C[C@H](O)[C@@H](CO)O4)c(=O)nc3s2)cc1 | 270 nM | 180 nM | > 20000 nM | > 200000 nM | 50 µM |
| CCCCc1ccc(-c2cc3cn([C@H]4C[C@H](O)[C@@H](CO)O4)c(=O)nc3s2)cc1 | 28 nM | 20 nM | > 3200 nM | > 200000 nM | 50 µM |
